Results on 23 compounds are retold here after patent publication US20170239237A1, “PYRROLOQUINOLINE DERIVATIVES AS 5-HT6 ANTAGONISTS, PREPARATION METHOD AND USE THEREOF” (Uniwersytet Jagiellonski, priority 2013, published 2017).

Like-named read-outs stand apart in the source and are kept apart here.

For test [1], the target named is dopamine D2L receptor (Homo sapiens, UniProt P14416). In words: Radioligand binding, D2 ([3H]-raclopride displacement).
Test [2] concerns the target T1, 5-HT1A receptor (Homo sapiens, UniProt P08908).
T1 sequence (P08908 1-422): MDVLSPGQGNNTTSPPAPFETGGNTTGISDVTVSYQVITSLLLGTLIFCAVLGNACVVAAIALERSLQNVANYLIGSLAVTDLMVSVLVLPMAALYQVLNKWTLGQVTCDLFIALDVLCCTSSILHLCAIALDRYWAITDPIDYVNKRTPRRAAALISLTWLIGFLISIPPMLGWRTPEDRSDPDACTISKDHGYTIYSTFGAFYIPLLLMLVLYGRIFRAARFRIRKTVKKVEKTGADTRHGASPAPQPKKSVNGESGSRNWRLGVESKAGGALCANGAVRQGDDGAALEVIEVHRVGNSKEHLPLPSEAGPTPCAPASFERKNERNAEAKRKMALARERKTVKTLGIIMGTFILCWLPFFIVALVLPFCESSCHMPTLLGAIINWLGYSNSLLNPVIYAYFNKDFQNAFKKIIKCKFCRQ
In words: Radioligand binding, 5-HT1A ([3H]-8-OH-DPAT displacement).

Test [3] has as its target 5-HT7 receptor (Homo sapiens, UniProt P34969). In words: Radioligand binding, 5-HT7 ([3H]-5-CT displacement).
In test [4] the target is T2, 5-HT6 receptor (Homo sapiens, UniProt P50406). Briefly: Radioligand binding, 5-HT6 ([3H]-LSD displacement).
For test [5], the target named is T2, 5-HT6 receptor. Briefly: CHO-human-5HT6-Aequorin functional assay (ago-/antagonism). The note with it: test concentration not given; for % inhibition of control agonist response: agonist effect, CHO-human-5HT6-Aequorin cells; for % inhibition of control antagonist response: antagonist effect vs 10^-6 M α-methylserotonin induced luminescence.
Setting [6] is: read-out: Ki 5-HT6, cloned human receptor in HEK293, three independent experiments, SEM ± 22%.

Sequence of dopamine D2L receptor (P14416 whole entry): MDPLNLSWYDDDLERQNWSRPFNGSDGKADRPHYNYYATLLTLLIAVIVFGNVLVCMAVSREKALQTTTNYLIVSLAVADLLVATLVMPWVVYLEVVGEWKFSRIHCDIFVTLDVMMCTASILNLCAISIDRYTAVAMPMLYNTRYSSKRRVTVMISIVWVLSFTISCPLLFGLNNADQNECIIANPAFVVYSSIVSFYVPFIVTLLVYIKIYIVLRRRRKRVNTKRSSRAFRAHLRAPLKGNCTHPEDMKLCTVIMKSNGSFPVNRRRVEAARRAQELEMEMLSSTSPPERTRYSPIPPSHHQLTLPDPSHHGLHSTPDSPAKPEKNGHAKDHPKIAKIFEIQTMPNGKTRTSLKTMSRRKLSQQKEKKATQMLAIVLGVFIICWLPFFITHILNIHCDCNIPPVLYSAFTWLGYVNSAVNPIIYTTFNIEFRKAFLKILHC
Sequence of 5-HT7 receptor (P34969 1-432 limits assumed): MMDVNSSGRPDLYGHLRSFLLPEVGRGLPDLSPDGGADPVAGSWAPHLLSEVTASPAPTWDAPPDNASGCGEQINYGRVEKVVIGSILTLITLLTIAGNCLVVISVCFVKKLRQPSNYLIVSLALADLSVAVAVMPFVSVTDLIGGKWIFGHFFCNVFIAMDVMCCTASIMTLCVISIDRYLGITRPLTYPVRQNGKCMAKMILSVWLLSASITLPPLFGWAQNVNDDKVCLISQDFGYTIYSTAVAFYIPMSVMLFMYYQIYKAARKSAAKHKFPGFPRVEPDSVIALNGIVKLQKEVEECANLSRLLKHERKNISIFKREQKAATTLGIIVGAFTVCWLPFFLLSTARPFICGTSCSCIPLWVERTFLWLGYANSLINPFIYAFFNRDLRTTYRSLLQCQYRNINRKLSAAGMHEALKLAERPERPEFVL
T2 sequence (P50406 whole entry): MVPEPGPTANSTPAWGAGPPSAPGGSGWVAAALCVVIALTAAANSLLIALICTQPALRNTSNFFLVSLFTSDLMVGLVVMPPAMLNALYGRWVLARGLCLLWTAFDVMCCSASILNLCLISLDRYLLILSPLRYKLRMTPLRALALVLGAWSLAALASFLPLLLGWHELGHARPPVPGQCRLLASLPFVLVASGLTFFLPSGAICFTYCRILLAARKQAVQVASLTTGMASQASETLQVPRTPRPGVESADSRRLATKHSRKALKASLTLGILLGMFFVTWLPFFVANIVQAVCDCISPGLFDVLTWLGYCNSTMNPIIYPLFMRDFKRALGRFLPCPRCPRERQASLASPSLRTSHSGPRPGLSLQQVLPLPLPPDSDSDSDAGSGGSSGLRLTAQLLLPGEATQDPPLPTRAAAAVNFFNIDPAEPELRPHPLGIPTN

Consider `CN(C)CCNc1nc2ccccc2c2c1ccn2S(=O)(=O)c1ccccc1` [Compound 1, N1,N1-dimethyl-N2-(1-(phenylsulfonyl)-1H-pyrrolo[3,2-c]quinolin-4-yl)ethane-1,2-diamine], for which the Ki in test [1] was 2260 nM; in test [2], 1880 nM; in test [3] it was 3970 nM; in test [4] it was 10 nM.
For the compound `O=S(=O)(c1cccc(Cl)c1)n1ccc2c(NC3CCNC3)nc3ccccc3c21` (stereo not drawn) [Compound 5, 1-((3-chlorophenyl)sulfonyl)-N-(pyrrolidin-3-yl)-1H-pyrrolo[3,2-c]quinolin-4-amine], the Ki in test [1] came out at 1440 nM; in test [2], 3030 nM; in test [3], 2130 nM.
Take `O=S(=O)(c1cccc(F)c1)n1ccc2c(NC3CCNC3)nc3ccccc3c21` (stereo not drawn) [Compound 8, 1-((3-fluorophenyl)sulfonyl)-N-(pyrrolidin-3-yl)-1H-pyrrolo[3,2-c]quinolin-4-amine]: the Ki in test [1] turned out to be 900 nM; in test [2], 3010 nM; in test [3], 9590 nM; in test [4], 5 nM. The “% inhibition of control agonist response” value in test [5] is reported as 9.6%. The “% inhibition of control antagonist response” value in test [5] is given as 80.8%.
Take `O=S(=O)(c1ccc(F)cc1)n1ccc2c(NC3CCNC3)nc3ccccc3c21` (stereo not drawn) [Compound 11, 1-((4-fluorophenyl)sulfonyl)-N-(pyrrolidin-3-yl)-1H-pyrrolo[3,2-c]quinolin-4-amine]: the Ki in test [1] was determined as 664 nM; in test [2], 5830 nM; in test [3], 6880 nM; in test [4], 18 nM. In addition, in test [5], the “% inhibition of control agonist response” value was found to be 4.8%. Further, the “% inhibition of control antagonist response” value in test [5] was found to be 51.8%.
As for `COc1cccc(S(=O)(=O)n2ccc3c(NC4CCNC4)nc4ccccc4c32)c1` (stereo not drawn) [Compound 13, 1-((3-methoxyphenyl)sulfonyl)-N-(pyrrolidin-3-yl)-1H-pyrrolo[3,2-c]quinolin-4-amine], the Ki in test [1] was determined as 513 nM; in test [2], 5190 nM; in test [3], 4850 nM; in test [4] it was 6 nM. In addition, in test [5], the “% inhibition of control agonist response” value was found to be 6.5%. The “% inhibition of control antagonist response” value in test [5] was 68.8%.
With `O=S(=O)(c1cccc(C(F)(F)F)c1)n1ccc2c(NC3CCNC3)nc3ccccc3c21` (stereo not drawn) [Compound 14, 1-((3-(trifluoromethyl)phenyl)sulfonyl)-N-(pyrrolidin-3-yl)-1H-pyrrolo[3,2-c]quinolin-4-amine], the Ki in test [1] was found to be 1280 nM; in test [3] it was 3820 nM; in test [4], 7 nM. The “% inhibition of control agonist response” value in test [5] was 10.8%. For the same compound, in test [5], the “% inhibition of control antagonist response” value is on record as 88.8%.
With `Cc1ccc2sc(S(=O)(=O)n3ccc4c(NC5CCNC5)nc5ccccc5c43)cc2c1` (stereo not drawn) [Compound 23, 1-((5-methylbenzo[b]thiophen-2-yl)sulfonyl)-N-(pyrrolidin-3-yl)-1H-pyrrolo[3,2-c]quinolin-4-amine], the inhibition constant Ki turned out to be 1550 nM in test [1], 19100 nM in test [2], 1310 nM in test [3] and 94 nM in test [4].
On the same counts, the results for `O=S(=O)(c1ccccc1Br)n1ccc2c(N3CCNCC3)nc3ccccc3c21` [Compound 28, 1-((2-bromophenyl)sulfonyl)-4-(piperazin-1-yl)-1H-pyrrolo[3,2-c]quinoline] are 7150 nM, 1220 nM, 7900 nM and 3 nM.
On to `O=S(=O)(c1ccc(F)cc1)n1ccc2c(N3CCNCC3)nc3ccccc3c21` [Compound 31, 1-((4-fluorophenyl)sulfonyl)-4-(piperazin-1-yl)-1H-pyrrolo[3,2-c]quinoline], for which the Ki came to 5940 nM in test [1], 214 nM in test [2], 6400 nM in test [3] and 18 nM in test [4] (setting [6]).
As for `O=S(=O)(c1cc(F)ccc1F)n1ccc2c(N3CCNCC3)nc3ccccc3c21` [Compound 32, 1-((2,5-difluorophenyl)sulfonyl)-4-(piperazin-1-yl)-1H-pyrrolo[3,2-c]quinoline], the values for the Ki in test [1], in test [2] and in test [3] were 5090 nM, 238 nM and 7690 nM, respectively.
The matching figures for `O=S(=O)(c1ccc(F)c(F)c1)n1ccc2c(N3CCNCC3)nc3ccccc3c21` [Compound 33, 1-((3,4-difluorophenyl)sulfonyl)-4-(piperazin-1-yl)-1H-pyrrolo[3,2-c]quinolinee]: 1780 nM, 311 nM and 5010 nM.
In the case of `O=S(=O)(c1ccc(C(F)(F)F)cc1)n1ccc2c(N3CCNCC3)nc3ccccc3c21` [Compound 36, 1-((4-(trifluoromethyl)phenyl)sulfonyl)-4-(piperazin-1-yl)-1H-pyrrolo[3,2-c]quinoline], the Ki was determined as 13300 nM in test [1], 194 nM in test [2], 2260 nM in test [3] and 34 nM in test [4] (setting [6]).
On to `COc1cccc(S(=O)(=O)n2ccc3c(N4CCNCC4)nc4ccccc4c32)c1` [Compound 37, 1-((3-methoxyphenyl)sulfonyl)-4-(piperazin-1-yl)-1H-pyrrolo[3,2-c]quinoline], for which the inhibition constant Ki in test [1] amounted to 7040 nM; in test [2], 372 nM; in test [3] it was 5250 nM.
For the compound `Cc1cccc(S(=O)(=O)n2ccc3c(N4CCNCC4)nc4ccccc4c32)c1` [Compound 39, 1-((3-methylphenyl)sulfonyl)-4-(piperazin-1-yl)-1H-pyrrolo[3,2-c]quinoline], the Ki in test [1] (read-out: Ki D2, cloned human receptor in HEK293, three independent experiments, SEM ± 22%) is 2160 nM; in test [2] (read-out: Ki 5-HT1A, cloned human receptor in HEK293, three independent experiments, SEM ± 22%), 760 nM; in test [3] (read-out: Ki 5-HT7), 4140 nM.
As to `CN1CCN(c2nc3ccccc3c3c2ccn3S(=O)(=O)c2ccccc2)CC1` [Compound 53, 1-(phenylsulfonyl)-4-(4-methylpiperazin-1-yl)-1H-pyrrolo[3,2-c]quinoline], the Ki in test [1] was 342 nM; in test [2], 127 nM; in test [3] it was 3800 nM.
The matching figures for `CN1CCN(c2nc3ccccc3c3c2ccn3S(=O)(=O)c2cccc(Cl)c2)CC1` [Compound 54, 1-((3-chlorophenyl)sulfonyl)-4-(4-methylpiperazin-1-yl)-1H-pyrrolo[3,2-c]quinoline]: 1260 nM, 519 nM and 3490 nM.
The matching figures for `CN1CCN(c2nc3ccccc3c3c2ccn3S(=O)(=O)c2cccc(F)c2)CC1` [Compound 55, 1-((3-fluorophenyl)sulfonyl)-4-(4-methylpiperazin-1-yl)-1H-pyrrolo[3,2-c]quinoline]: 894 nM, 640 nM and 8250 nM.
As to `CN1CCN(c2nc3ccccc3c3c2ccn3S(=O)(=O)c2ccc(N)cc2)CC1` [Compound 57, 1-((4-aminophenyl)sulfonyl)-4-(4-methylpiperazin-1-yl)-1H-pyrrolo[3,2-c]quinoline], in test [5], the “% inhibition of control agonist response” value was 1.5% and the “% inhibition of control antagonist response” value was determined as 97.3%.
Take `O=S(=O)(c1ccccc1)n1ccc2c(N3CCN(Cc4ccccc4)CC3)nc3ccccc3c21` [Compound 60, 1-(phenylsulfonyl)-4-(4-benzylpiperazin-1-yl)-1H-pyrrolo[3,2-c]quinoline]: the Ki is 415 nM in test [1], 33000 nM in test [2], 2360 nM in test [3] and 220 nM in test [4].
In the case of `O=S(=O)(c1ccc(Cl)s1)n1ccc2c(N3CCN(Cc4ccccc4)CC3)nc3ccccc3c21` [Compound 61, 1-((5-chlorothiophen-2-yl)sulfonyl)-4-(4-benzylpiperazin-1-yl)-1H-pyrrolo[3,2-c]quinoline], the inhibition constant (Ki) in test [1] worked out at 239 nM; in test [2], 12800 nM; in test [3], 16200 nM; in test [4], 93 nM.
The matching figures for `O=S(=O)(c1cccc2cccnc12)n1ccc2c(N3CCN(Cc4ccccc4)CC3)nc3ccccc3c21` [Compound 62, 1-(quinolin-8-ylsulfonyl)-4-(4-benzylpiperazin-1-yl)-1H-pyrrolo[3,2-c]quinoline]: 1470 nM, 3520 nM, 5870 nM and 66 nM.
For `O=S(=O)(c1cccc(Cl)c1)n1ccc2c(N3CCCCC3)nc3ccccc3c21` [Compound 76, 1-((3-chlorophenyl)sulfonyl)-4-(piperidin-1-yl)-1H-pyrrolo[3,2-c]quinoline], the inhibition constant (Ki) in test [1] is 14500 nM; in test [3], 22300 nM; in test [4] it was 361 nM. For the same compound, the “% inhibition of control agonist response” value in test [5] is 22.2%. For the same compound, in test [5], the “% inhibition of control antagonist response” value is on record as 11.6%.
`O=S(=O)(c1cccc2cccnc12)n1ccc2c(N3CCCCC3)nc3ccccc3c21` [Compound 77, 1-(quinolin-8-ylsulfonyl)-4-(piperidin-1-yl)-1H-pyrrolo[3,2-c]quinoline]: the inhibition constant Ki stood at 5830 nM in test [1], 85400 nM in test [2], 27000 nM in test [3] and 188 nM in test [4].

For orientation: Ki means a measure of affinity in units of concentration, obtained from inhibition or displacement.
